According to ChEMBL document CHEMBL1201862, “PubChem BioAssay data set” (2004):
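Results reflect a 48-hour exposure of cells in 96-well plates to compound at five concentrations. GI50 is the concentration that inhibits growth by half.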 Calls of active or inactive are those of the source. Cut-off read from the data, not from the text of the source: active = GI50 up to about 1.1 µM and inactive = higher.

What was measured:
Experiment in all cases: inhibition of tumour cell growth, NCI panel, 48 h
[1] = tested on: HCT-15
[2] = tested on: A549
[3] = tested on: U-251
[4] = tested on: Hs-578T
[5] = tested on: K562
[6] = tested on: EKVX
[7] = tested on: MDA-MB-435
[8] = tested on: SN12C
[9] = tested on: Malme-3M
[10] = tested on: SF-539
[11] = tested on: MCF7
[12] = tested on: SR
[13] = tested on: SK-OV-3
[14] = tested on: M14
[15] = tested on: OVCAR-4
[16] = tested on: T47D
[17] = tested on: RPMI-8226
[18] = tested on: SK-MEL-5
[19] = tested on: CCRF-CEM
[20] = tested on: SNB-75

SMILES	GI50 [1] [µM]	GI50 [2]	GI50 [3]	GI50 [4]	GI50 [5]	GI50 [6]	GI50 [7]	GI50 [8]	GI50 [9]	GI50 [10]	GI50 [11]	GI50 [12]	GI50 [13]	GI50 [14]	GI50 [15]	GI50 [16]	GI50 [17]	GI50 [18]	GI50 [19]	GI50 [20]
C=CCCCCCCCCCOC1C=CC(OC(C)=O)C(COC(C)=O)O1 (stereo not drawn)	36.6	55.7 µM (inactive)	39.6 µM (inactive)	28.9 µM (inactive)	1.99 µM (inactive)	47.6 µM (inactive)	50.8 µM (inactive)	42.8 µM (inactive)	35.2 µM (inactive)	> 100 µM (inactive)	38.8 µM (inactive)	32.7 µM (inactive)	> 100 µM (inactive)	30.1 µM (inactive)	45.8 µM (inactive)	77.3 µM (inactive)	13.2 µM (inactive)	31.6 µM (inactive)	39.1 µM (inactive)	
O=C(NCP(=O)(Oc1ccccc1)Oc1ccccc1)OCc1ccccc1	> 100	70.8 µM (inactive)	> 100 µM (inactive)	40.7 µM (inactive)	> 100 µM (inactive)	> 100 µM (inactive)	> 100 µM (inactive)	> 100 µM (inactive)	77.6 µM (inactive)		> 100 µM (inactive)	> 100 µM (inactive)	33.1 µM (inactive)	> 100 µM (inactive)	45.3 µM (inactive)	> 100 µM (inactive)	> 100 µM (inactive)	> 100 µM (inactive)	> 100 µM (inactive)	32 µM (inactive)
CNC1=Nc2ccccc2C(=O)N2CSCC12 (stereo not drawn)	> 100	> 100 µM (inactive)	> 100 µM (inactive)	> 100 µM (inactive)	> 100 µM (inactive)	> 100 µM (inactive)	> 100 µM (inactive)	> 100 µM (inactive)	> 100 µM (inactive)		> 100 µM (inactive)	> 100 µM (inactive)	> 100 µM (inactive)	> 100 µM (inactive)	> 100 µM (inactive)	> 100 µM (inactive)	> 100 µM (inactive)	> 100 µM (inactive)	> 100 µM (inactive)	> 100 µM (inactive)
COc1cccc(Cc2cc(=O)c3ccc(C)nc3[nH]2)c1	> 100	> 100 µM (inactive)	> 100 µM (inactive)	60.1 µM (inactive)	86.7 µM (inactive)	> 100 µM (inactive)	> 100 µM (inactive)	> 100 µM (inactive)	57.7 µM (inactive)		> 100 µM (inactive)	35.8 µM (inactive)	> 100 µM (inactive)	> 100 µM (inactive)		> 100 µM (inactive)	48.6 µM (inactive)	> 100 µM (inactive)	> 100 µM (inactive)	93.8 µM (inactive)
CC(=O)Oc1cc(S(=O)(=O)Nc2nc(N)n[nH]2)c(S)cc1Cl	> 100	> 100 µM (inactive)	> 100 µM (inactive)	> 100 µM (inactive)	> 100 µM (inactive)	> 100 µM (inactive)	> 100 µM (inactive)	> 100 µM (inactive)	> 100 µM (inactive)	> 100 µM (inactive)	> 100 µM (inactive)	> 100 µM (inactive)		> 100 µM (inactive)	> 100 µM (inactive)	> 100 µM (inactive)	> 100 µM (inactive)	> 100 µM (inactive)	> 100 µM (inactive)	
COc1ccc(N2C(=O)C3c4[nH]c5ccc(C)cc5c4C4CCC(C(C)C)CC4C3C2=O)cc1 (stereo not drawn)	> 100	> 100 µM (inactive)	47.6 µM (inactive)	57.8 µM (inactive)	> 100 µM (inactive)	> 100 µM (inactive)	> 100 µM (inactive)	> 100 µM (inactive)			> 100 µM (inactive)	> 100 µM (inactive)	> 100 µM (inactive)	> 100 µM (inactive)	> 100 µM (inactive)	> 100 µM (inactive)	> 100 µM (inactive)	> 100 µM (inactive)	0.995 µM (active)	27.7 µM (inactive)
CC1=NN(c2nc(N)nc(/C(C#N)=C\c3csc([N+](=O)[O-])c3)n2)C(C)(C)C1	81.3		19.3 µM (inactive)	22.5 µM (inactive)	39.4 µM (inactive)	30.2 µM (inactive)	39.7 µM (inactive)			27.2 µM (inactive)	35.6 µM (inactive)	51.1 µM (inactive)	42.2 µM (inactive)	> 100 µM (inactive)	21.9 µM (inactive)	23.7 µM (inactive)	35.6 µM (inactive)	30.5 µM (inactive)	2.23 µM (inactive)	
O=C(O)/C=C/c1ccc2c(c1)CC1(Cc3ccccc3C1)C2	40.3	34.8 µM (inactive)	49.5 µM (inactive)	> 100 µM (inactive)	47.2 µM (inactive)	> 100 µM (inactive)	80.5 µM (inactive)	44.5 µM (inactive)	78.2 µM (inactive)	96.4 µM (inactive)	43.6 µM (inactive)	23.2 µM (inactive)	> 100 µM (inactive)	48.1 µM (inactive)	39 µM (inactive)	> 100 µM (inactive)	96.8 µM (inactive)	43.5 µM (inactive)	91.2 µM (inactive)	
CN(/N=C/C=N/N(C)C1=NCCN1)C1=NCCN1	> 100	> 100 µM (inactive)	> 100 µM (inactive)	> 100 µM (inactive)	> 100 µM (inactive)	> 100 µM (inactive)	> 100 µM (inactive)	> 100 µM (inactive)	> 100 µM (inactive)	> 100 µM (inactive)	> 100 µM (inactive)	> 100 µM (inactive)	> 100 µM (inactive)	> 100 µM (inactive)	> 100 µM (inactive)	> 100 µM (inactive)		> 100 µM (inactive)	> 100 µM (inactive)	> 100 µM (inactive)
COc1ccccc1C(=O)NO	> 100	> 100 µM (inactive)	> 100 µM (inactive)	> 100 µM (inactive)	> 100 µM (inactive)	> 100 µM (inactive)	> 100 µM (inactive)	> 100 µM (inactive)			> 100 µM (inactive)	> 100 µM (inactive)	> 100 µM (inactive)	> 100 µM (inactive)	> 100 µM (inactive)	> 100 µM (inactive)	> 100 µM (inactive)	> 100 µM (inactive)	> 100 µM (inactive)	> 100 µM (inactive)
C=C1C[C@@H]2O[C@H]3[C@H]4[C@@H](C[C@@H](C)[C@@H](OC(C)=O)[C@H]42)[C@@H](C)CO[C@@]3(C)[C@H](OC(C)=O)C[C@H]1O	> 100	> 100 µM (inactive)	> 100 µM (inactive)	> 100 µM (inactive)	25.7 µM (inactive)	> 100 µM (inactive)	33 µM (inactive)	> 100 µM (inactive)	> 100 µM (inactive)	> 100 µM (inactive)	84.5 µM (inactive)	43 µM (inactive)	> 100 µM (inactive)	> 100 µM (inactive)	> 100 µM (inactive)	> 100 µM (inactive)		> 100 µM (inactive)	25.9 µM (inactive)	84.3 µM (inactive)
Cc1ccc(I)cc1N=C=S	17.8	28.6 µM (inactive)	19.5 µM (inactive)	29.9 µM (inactive)	23 µM (inactive)	23.7 µM (inactive)	23.1 µM (inactive)	20.7 µM (inactive)	25.1 µM (inactive)	18.8 µM (inactive)	21.2 µM (inactive)		37.3 µM (inactive)	20.2 µM (inactive)	26.9 µM (inactive)	16.1 µM (inactive)	20.8 µM (inactive)	16.5 µM (inactive)	21.8 µM (inactive)	21.2 µM (inactive)
O=C1C=C(N2CCN(CCOCCO)CC2)C(=O)c2c(O)ccc(O)c21	1.64	3.56 µM (inactive)	4.02 µM (inactive)	20.1 µM (inactive)	3.17 µM (inactive)	19.6 µM (inactive)	1.82 µM (inactive)	4.22 µM (inactive)	1.52 µM (inactive)	10.6 µM (inactive)	1.42 µM (inactive)		20.6 µM (inactive)	1.56 µM (inactive)	3.76 µM (inactive)	5.65 µM (inactive)	4.44 µM (inactive)	1.72 µM (inactive)	3.17 µM (inactive)	16.6 µM (inactive)
Oc1ccc(Oc2cc3c(cc2Oc2ccc(O)cc2)-c2nc-3nc3[nH]c(nc4nc(nc5[nH]c(n2)c2cc(Oc6ccc(O)cc6)c(Oc6ccc(O)cc6)cc52)-c2cc(Oc5ccc(O)cc5)c(Oc5ccc(O)cc5)cc2-4)c2cc(Oc4ccc(O)cc4)c(Oc4ccc(O)cc4)cc32)cc1	> 100	> 100 µM (inactive)	> 100 µM (inactive)	> 100 µM (inactive)	> 100 µM (inactive)	> 100 µM (inactive)	> 100 µM (inactive)	> 100 µM (inactive)	19.1 µM (inactive)	> 100 µM (inactive)	> 100 µM (inactive)	> 100 µM (inactive)	> 100 µM (inactive)	16.7 µM (inactive)	35.7 µM (inactive)	> 100 µM (inactive)		60.1 µM (inactive)	> 100 µM (inactive)	> 100 µM (inactive)
COC(=O)c1ccc(/N=N/N(C)COc2ccc(C#N)cc2)cc1	22.4	70 µM (inactive)	98.6 µM (inactive)	59.4 µM (inactive)	35.2 µM (inactive)	> 100 µM (inactive)	40.4 µM (inactive)	> 100 µM (inactive)	> 100 µM (inactive)	> 100 µM (inactive)	> 100 µM (inactive)		> 100 µM (inactive)	> 100 µM (inactive)	> 100 µM (inactive)	74 µM (inactive)	> 100 µM (inactive)	45.1 µM (inactive)	20.3 µM (inactive)	49.2 µM (inactive)
